From ChEMBL document CHEMBL2424528, “Novel tetrahydropyran analogs as dipeptidyl peptidase IV inhibitors: Profile of clinical candidate (2R,3S,5R)-2- (2,5-difluorophenyl)-5-(4,6-dihydropyrrolo [3,4-c]pyrazol-5-(1H)-yl)tetrahydro-2H-pyran-3-amine (23) [corrected]” (Bioorg Med Chem Lett, 2013)
Blank lines part the entries; values can stand above or below the compound they belong to. Activity calls are given as the source filed them. The rule behind the calls is not given here.

Key:
Dipeptidyl peptidase 8 = Dipeptidyl peptidase 8 (Homo sapiens, UniProt Q6V1X1); test: Inhibition of human DPP8
Sequence of Dipeptidyl peptidase 8 (Q6V1X1 whole entry): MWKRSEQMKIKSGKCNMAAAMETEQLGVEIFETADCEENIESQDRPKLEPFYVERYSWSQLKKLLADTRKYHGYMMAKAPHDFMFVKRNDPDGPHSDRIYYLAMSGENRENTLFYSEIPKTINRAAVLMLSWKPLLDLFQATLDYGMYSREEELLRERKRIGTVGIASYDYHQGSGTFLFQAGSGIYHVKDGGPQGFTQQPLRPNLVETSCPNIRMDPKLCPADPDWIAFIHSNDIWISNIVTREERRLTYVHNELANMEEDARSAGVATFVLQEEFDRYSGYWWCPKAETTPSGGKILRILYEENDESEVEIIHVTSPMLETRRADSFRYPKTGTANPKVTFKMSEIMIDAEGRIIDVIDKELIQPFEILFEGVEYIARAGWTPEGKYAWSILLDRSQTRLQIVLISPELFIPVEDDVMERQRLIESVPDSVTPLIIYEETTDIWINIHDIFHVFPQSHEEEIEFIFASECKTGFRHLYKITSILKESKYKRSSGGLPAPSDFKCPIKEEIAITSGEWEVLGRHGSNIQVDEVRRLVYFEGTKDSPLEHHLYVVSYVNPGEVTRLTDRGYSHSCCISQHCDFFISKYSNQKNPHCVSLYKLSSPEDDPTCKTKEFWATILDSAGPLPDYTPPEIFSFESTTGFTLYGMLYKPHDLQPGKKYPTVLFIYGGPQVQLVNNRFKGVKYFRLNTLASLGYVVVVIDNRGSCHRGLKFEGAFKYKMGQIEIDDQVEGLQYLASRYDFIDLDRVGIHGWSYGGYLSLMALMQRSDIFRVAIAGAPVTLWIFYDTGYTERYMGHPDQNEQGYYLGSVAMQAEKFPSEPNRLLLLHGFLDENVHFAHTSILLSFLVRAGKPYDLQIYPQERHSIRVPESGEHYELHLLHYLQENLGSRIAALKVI

Dipeptidyl peptidase 2 = Dipeptidyl peptidase 2 (Homo sapiens, UniProt Q9UHL4); test: Inhibition of QPP (unknown origin)
Prolyl endopeptidase FAP = target: T1, Prolyl endopeptidase FAP (Homo sapiens, UniProt Q12884); test: Inhibition of human FAP
T1 sequence (Q12884 whole entry): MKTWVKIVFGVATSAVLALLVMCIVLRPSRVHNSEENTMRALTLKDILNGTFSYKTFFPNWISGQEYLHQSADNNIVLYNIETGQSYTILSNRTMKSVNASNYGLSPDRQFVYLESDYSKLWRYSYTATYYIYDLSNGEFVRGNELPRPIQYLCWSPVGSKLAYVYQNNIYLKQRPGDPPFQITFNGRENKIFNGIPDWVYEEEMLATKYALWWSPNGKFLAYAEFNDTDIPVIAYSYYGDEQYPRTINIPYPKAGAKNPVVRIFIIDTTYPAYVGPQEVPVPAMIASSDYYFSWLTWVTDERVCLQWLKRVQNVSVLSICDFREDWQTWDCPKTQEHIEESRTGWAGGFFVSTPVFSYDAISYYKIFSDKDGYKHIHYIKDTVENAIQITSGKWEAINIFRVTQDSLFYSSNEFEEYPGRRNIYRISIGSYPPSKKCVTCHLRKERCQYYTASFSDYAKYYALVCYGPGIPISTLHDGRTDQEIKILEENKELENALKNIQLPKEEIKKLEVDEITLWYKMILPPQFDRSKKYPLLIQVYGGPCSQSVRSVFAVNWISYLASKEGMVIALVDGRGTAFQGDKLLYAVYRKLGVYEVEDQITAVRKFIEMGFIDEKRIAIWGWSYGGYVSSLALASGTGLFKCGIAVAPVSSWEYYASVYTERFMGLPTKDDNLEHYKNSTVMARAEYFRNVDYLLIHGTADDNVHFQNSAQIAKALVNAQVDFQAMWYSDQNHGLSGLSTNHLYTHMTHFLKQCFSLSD

[1] = Dissociation constant, pKa of the compound; format: physicochemical
[2] = target: Voltage-gated inwardly rectifying potassium channel KCNH2 (Homo sapiens, UniProt Q12809); test: Inhibition of human ERG channel
Sequence of Voltage-gated inwardly rectifying potassium channel KCNH2 (Q12809 whole entry): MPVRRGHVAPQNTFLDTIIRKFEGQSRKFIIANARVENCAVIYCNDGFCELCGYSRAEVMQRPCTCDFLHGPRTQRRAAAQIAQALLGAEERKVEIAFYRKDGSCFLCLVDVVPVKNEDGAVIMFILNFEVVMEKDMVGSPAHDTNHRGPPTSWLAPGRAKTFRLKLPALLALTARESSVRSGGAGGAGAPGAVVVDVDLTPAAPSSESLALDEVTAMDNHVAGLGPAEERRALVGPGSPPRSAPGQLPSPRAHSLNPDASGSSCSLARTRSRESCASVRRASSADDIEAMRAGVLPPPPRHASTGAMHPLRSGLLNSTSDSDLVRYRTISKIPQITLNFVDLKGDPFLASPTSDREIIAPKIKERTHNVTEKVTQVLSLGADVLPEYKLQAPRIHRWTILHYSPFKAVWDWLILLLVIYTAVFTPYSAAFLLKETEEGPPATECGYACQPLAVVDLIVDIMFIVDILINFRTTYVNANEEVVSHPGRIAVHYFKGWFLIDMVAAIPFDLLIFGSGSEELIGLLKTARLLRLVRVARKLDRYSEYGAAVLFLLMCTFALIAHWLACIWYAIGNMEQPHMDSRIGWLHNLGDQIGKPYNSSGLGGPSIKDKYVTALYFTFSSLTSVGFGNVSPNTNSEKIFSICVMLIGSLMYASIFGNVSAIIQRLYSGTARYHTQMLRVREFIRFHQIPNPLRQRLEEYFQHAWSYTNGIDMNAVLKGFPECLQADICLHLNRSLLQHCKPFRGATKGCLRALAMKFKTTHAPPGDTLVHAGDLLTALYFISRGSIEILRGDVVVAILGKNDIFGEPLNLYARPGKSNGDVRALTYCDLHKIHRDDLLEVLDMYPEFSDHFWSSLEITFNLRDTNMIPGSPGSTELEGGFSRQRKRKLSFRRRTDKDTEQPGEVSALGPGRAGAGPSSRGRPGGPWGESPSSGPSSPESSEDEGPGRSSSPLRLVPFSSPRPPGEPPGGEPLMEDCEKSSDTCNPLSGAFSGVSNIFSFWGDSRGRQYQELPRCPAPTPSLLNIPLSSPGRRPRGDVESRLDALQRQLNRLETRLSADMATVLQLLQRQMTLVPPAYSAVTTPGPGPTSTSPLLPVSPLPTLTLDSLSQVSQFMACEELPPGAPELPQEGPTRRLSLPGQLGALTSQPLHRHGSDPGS

Canis familiaris [3] = test: Cardiotoxicity in cardiovascular dog model assessed as QTc prolongation at 3 mg/kg; format: toxicity, organism-based, Canis lupus familiaris, Heart; design: dose 3 mg/kg; details: in vivo
Canis familiaris [4] = test: Cardiotoxicity in dog model assessed as QTc prolongation up to 30 mg/kg; format: toxicity, organism-based, Canis lupus familiaris; design: dose 30 mg/kg; details: in vivo
Mus musculus [5] = test: Antidiabetic activity in DPP-4i-deficient lean mouse assessed as inhibition of blood glucose excursion at 3 mg/kg administered 1 hr prior to dextrose challenge by oral glucose tolerance test relative to control; format: functional, organism-based; design: dose 3 mg/kg
[6] = Oral bioavailability in beagle dog at 2 mg/kg; format: ADME, organism-based, Canis lupus familiaris; details: in vivo
Rhesus monkey = test: Dose normalized AUC in rhesus monkey at 2 mg/kg, po; format: ADME, organism-based, Macaca mulatta; design: dose 2 mg/kg, route oral; details: in vivo
[7] = Volume of distribution at steady state in rhesus monkey at 1 mg/kg, iv and 2 mg/kg, po; format: ADME, organism-based, Macaca mulatta; details: in vivo, read-out: Vdss
Mus musculus [8] = test: In vivo inhibition of DPP4 in lean mouse model at 0.3 mg/kg administered 10 mins prior to dextrose challenge; format: functional; design: scale not given: the % may be the effect or the level left
[9] = target: Voltage-dependent L-type calcium channel subunit alpha-1C (Homo sapiens, UniProt Q13936); test: Inhibition of Cav1.2 channel (unknown origin)
Sequence of Voltage-dependent L-type calcium channel subunit alpha-1C (Q13936 whole entry): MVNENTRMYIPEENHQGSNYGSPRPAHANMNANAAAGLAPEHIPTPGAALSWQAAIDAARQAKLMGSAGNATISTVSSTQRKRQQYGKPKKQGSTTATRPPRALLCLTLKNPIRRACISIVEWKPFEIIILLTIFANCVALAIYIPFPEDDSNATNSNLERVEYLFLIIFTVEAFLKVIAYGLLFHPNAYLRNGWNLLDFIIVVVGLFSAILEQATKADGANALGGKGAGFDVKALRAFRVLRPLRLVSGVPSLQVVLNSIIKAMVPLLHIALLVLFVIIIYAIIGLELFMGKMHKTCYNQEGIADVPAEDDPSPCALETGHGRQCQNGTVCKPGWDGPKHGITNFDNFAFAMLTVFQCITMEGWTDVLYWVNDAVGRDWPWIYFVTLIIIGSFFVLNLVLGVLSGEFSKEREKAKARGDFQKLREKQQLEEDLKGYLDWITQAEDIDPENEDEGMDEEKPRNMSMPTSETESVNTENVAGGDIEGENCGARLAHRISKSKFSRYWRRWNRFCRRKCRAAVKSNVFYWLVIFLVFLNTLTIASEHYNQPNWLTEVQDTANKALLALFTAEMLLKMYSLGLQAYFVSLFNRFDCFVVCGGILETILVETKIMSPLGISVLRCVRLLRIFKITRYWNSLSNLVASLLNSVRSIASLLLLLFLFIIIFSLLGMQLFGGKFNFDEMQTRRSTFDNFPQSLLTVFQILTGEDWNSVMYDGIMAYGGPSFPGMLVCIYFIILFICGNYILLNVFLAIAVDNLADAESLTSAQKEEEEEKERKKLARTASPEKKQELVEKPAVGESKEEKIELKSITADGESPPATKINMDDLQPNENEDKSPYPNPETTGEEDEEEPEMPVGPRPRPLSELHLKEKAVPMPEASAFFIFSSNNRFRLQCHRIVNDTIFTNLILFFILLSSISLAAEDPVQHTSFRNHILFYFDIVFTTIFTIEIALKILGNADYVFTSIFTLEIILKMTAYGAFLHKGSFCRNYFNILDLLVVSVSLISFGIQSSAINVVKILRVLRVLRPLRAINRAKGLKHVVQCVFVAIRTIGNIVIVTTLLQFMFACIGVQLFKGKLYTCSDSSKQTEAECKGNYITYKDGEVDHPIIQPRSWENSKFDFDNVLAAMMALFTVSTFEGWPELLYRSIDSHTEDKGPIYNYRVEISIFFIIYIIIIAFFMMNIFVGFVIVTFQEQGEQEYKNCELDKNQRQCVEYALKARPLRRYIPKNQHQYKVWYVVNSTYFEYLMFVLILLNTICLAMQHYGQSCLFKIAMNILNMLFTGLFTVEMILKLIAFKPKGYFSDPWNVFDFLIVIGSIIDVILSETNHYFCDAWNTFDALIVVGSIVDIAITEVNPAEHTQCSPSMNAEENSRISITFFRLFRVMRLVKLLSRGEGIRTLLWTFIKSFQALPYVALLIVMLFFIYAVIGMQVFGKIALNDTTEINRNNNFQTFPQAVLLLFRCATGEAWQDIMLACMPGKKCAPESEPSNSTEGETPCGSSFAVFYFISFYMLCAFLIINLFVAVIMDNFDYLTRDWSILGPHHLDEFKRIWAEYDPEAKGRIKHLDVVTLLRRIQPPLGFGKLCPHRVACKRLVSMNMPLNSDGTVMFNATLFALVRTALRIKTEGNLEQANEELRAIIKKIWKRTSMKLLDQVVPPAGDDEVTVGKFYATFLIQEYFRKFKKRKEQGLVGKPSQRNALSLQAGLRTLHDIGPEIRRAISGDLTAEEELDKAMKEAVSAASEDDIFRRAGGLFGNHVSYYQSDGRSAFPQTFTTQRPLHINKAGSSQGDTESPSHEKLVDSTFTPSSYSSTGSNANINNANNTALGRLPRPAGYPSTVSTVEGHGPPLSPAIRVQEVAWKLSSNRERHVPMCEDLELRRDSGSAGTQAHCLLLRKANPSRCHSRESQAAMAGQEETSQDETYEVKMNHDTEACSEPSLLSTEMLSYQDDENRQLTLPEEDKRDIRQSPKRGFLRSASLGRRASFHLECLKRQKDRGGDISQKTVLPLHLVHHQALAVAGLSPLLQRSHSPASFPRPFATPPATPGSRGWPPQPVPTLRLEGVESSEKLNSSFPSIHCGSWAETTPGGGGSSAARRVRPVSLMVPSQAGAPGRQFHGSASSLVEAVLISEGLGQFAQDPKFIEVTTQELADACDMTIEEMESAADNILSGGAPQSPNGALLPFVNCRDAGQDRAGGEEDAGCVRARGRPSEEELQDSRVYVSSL

[10] = Cmax in beagle dog at 2 mg/kg, po; format: ADME, organism-based, Canis lupus familiaris; design: dose 2 mg/kg, route oral; details: in vivo
[11] = Cmax in rat at 2 mg/kg, po; format: ADME, organism-based; design: dose 2 mg/kg, route oral; details: in vivo
[12] = Plasma clearance in rat at 1 mg/kg, iv and 2 mg/kg, po; format: ADME, organism-based
[13] = Cmax in rhesus monkey at 2 mg/kg, po; format: ADME, organism-based, Macaca mulatta; design: dose 2 mg/kg, route oral; details: in vivo
[14] = Terminal half life in rhesus monkey at 1 mg/kg, iv and 2 mg/kg, po; format: ADME, organism-based, Macaca mulatta; details: in vivo, read-out: beta t1/2 (converted)
[15] = Tmax in rat at 1 mg/kg, iv and 2 mg/kg, po; format: ADME, organism-based; details: in vivo
Mus musculus [16] = test: Antidiabetic activity in lean mouse assessed as reduction in blood glucose AUC at 0.1 mg/kg, po administered 1 hr prior to dextrose challenge by oral glucose tolerance test; format: functional; design: scale not given: the % may be the effect or the level left
Canis familiaris [17] = test: Dose normalized AUC in beagle dog at 2 mg/kg, po; format: ADME, organism-based, Canis lupus familiaris; design: dose 2 mg/kg, route oral; details: in vivo
[18] = Tmax in rhesus monkey at 1 mg/kg, iv and 2 mg/kg, po; format: ADME, organism-based, Macaca mulatta; details: in vivo
[19] = Plasma clearance in beagle dog at 1 mg/kg, iv and 2 mg/kg, po; format: ADME, organism-based, Canis lupus familiaris
[20] = Volume of distribution at steady state in rat at 1 mg/kg, iv and 2 mg/kg, po; format: ADME, organism-based; details: in vivo, read-out: Vdss
[21] = Plasma concentration in lean mouse at 0.3 mg/kg administered 10 mins prior to dextrose challenge; format: ADME, organism-based; design: dose 0.3 mg/kg
[22] = Terminal half life in beagle dog at 1 mg/kg, iv and 2 mg/kg, po; format: ADME, organism-based, Canis lupus familiaris; details: in vivo, read-out: beta t1/2 (converted)
Mus musculus [23] = test: Antidiabetic activity in orally dosed lean mouse assessed as reduction in blood glucose excursion administered 1 hr prior to dextrose challenge by oral glucose tolerance test; format: functional, organism-based
Mus musculus [24] = test: In vivo inhibition of DPP4 in lean mouse model administered 10 mins prior to dextrose challenge; format: functional, organism-based
[25] = Plasma clearance in rhesus monkey at 1 mg/kg, iv and 2 mg/kg, po; format: ADME, organism-based, Macaca mulatta
Mus musculus [26] = test: Induction in plasma GLP-1 level in lean mouse at 1 mg/kg; format: functional, organism-based; design: dose 1 mg/kg
Mus musculus [27] = test: Antidiabetic activity in lean mouse assessed as reduction in blood glucose AUC at 3 mg/kg, po administered 1 hr prior to dextrose challenge by oral glucose tolerance test; format: functional; design: scale not given: the % may be the effect or the level left
Rattus norvegicus = test: Dose normalized AUC in rat at 2 mg/kg, po; format: ADME, organism-based; design: dose 2 mg/kg, route oral; details: in vivo
Mus musculus [28] = organism: Mus musculus; test: Induction in plasma GLP-1 level in lean mouse; format: functional, organism-based
[29] = Tmax in beagle dog at 1 mg/kg, iv and 2 mg/kg, po; format: ADME, organism-based, Canis lupus familiaris; details: in vivo
[30] = Oral bioavailability in rat at 2 mg/kg; format: ADME, organism-based; details: in vivo
[31] = Inhibition of cytochrome P450 (unknown origin); format: ADME; details: human
[32] = Oral bioavailability in rhesus monkey at 2 mg/kg; format: ADME, organism-based, Macaca mulatta; details: in vivo
[33] = Terminal half life in rat at 1 mg/kg, iv and 2 mg/kg, po; format: ADME, organism-based; details: in vivo, read-out: beta t1/2 (converted)
Mus musculus [34] = test: Antidiabetic activity in wild type lean mouse assessed as inhibition of blood glucose excursion at 3 mg/kg administered 1 hr prior to dextrose challenge by oral glucose tolerance test; format: functional
[35] = Volume of distribution at steady state in beagle dog at 1 mg/kg, iv and 2 mg/kg, po; format: ADME, organism-based, Canis lupus familiaris; details: in vivo, read-out: Vdss

Compound: N[C@H]1C[C@@H](N2Cc3ccccc3C2=O)CO[C@@H]1c1cc(F)ccc1F
IC50 (Dipeptidyl peptidase 8): > 100 µM
IC50 (Dipeptidyl peptidase 2): > 100 µM
IC50 (Prolyl endopeptidase FAP): > 100 µM

Compound: CC1(C)c2nc(C3CC3)ncc2CN1[C@H]1CO[C@H](c2cc(F)ccc2F)[C@@H](N)C1
IC50 (Dipeptidyl peptidase 8): > 100 µM

Compound: Cc1nc2c(o1)CN([C@H]1CO[C@H](c3cc(F)ccc3F)[C@@H](N)C1)C2
IC50 (Dipeptidyl peptidase 8): > 100 µM
IC50 (Dipeptidyl peptidase 2): > 100 µM
IC50 (Prolyl endopeptidase FAP): > 100 µM

Compound: N[C@H]1C[C@@H](N2Cc3ccccc3O2)CO[C@@H]1c1cc(F)ccc1F
IC50 (Prolyl endopeptidase FAP): > 100 µM

Compound: N[C@H]1C[C@@H](N2Cc3cn[nH]c3C2)CO[C@@H]1c1cc(F)ccc1Cl
IC50 (Dipeptidyl peptidase 2): > 100 µM
IC50 (Prolyl endopeptidase FAP): > 100 µM

Compound: N[C@H]1C[C@@H](N2Cc3cnc(C4CC4)nc3C2)CO[C@@H]1c1cc(F)c(F)cc1F
IC50 [2]: > 30 µM
Activity (Canis familiaris [4]): Non-toxic

Compound: CC1(C)c2cnc(C3CC3)nc2CN1[C@H]1CO[C@H](c2cc(F)ccc2F)[C@@H](N)C1
IC50 (Dipeptidyl peptidase 8): > 100 µM
IC50 (Prolyl endopeptidase FAP): > 100 µM

Compound: N[C@H]1C[C@@H](N2Cc3cn[nH]c3C2)CO[C@@H]1c1cc(F)ccc1F
inhibition (Mus musculus [5]): inactive
bioavailability [6]: 83%
AUC/dose (Rhesus monkey): 7.33 µM·h/mg/kg
Vd [7]: 4.2 L/kg
Activity (Mus musculus [8]): >80%
inhibition (INH) [9]: Not Active
inhibition (INH) ([2]; human): Not Active
Cmax [10]: 1920 nM
Cmax [11]: 800 nM
clearance [12]: 9.7 mL/min/kg
Cmax [13]: 1480 nM
half-life [14]: 9.7 h
Tmax [15]: 0.5 h
Activity (Mus musculus [16]): 27%
AUC/dose (Canis familiaris [17]): 16.1 µM·h/mg/kg
Tmax [18]: 1.1 h
clearance [19]: 2.7 mL/min/kg
Vd [20]: 4.9 L/kg
concentration at 10 min [21]: 260 nM
half-life [22]: 13 h
Activity (Mus musculus [23]): Dose-dependent effect
Activity (Mus musculus [24]): Dose-dependent effect
clearance [25]: 5.2 mL/min/kg
Activity (Mus musculus [26]): Active
Activity (Mus musculus [27]): 47%
AUC/dose (Rattus norvegicus): 3.72 µM·h/mg/kg
Activity (Mus musculus [28]): Dose-dependent effect
Tmax [29]: 3.5 h
bioavailability [30]: 70%
inhibition (INH) [31]: Not Active
bioavailability [32]: 72%
half-life [33]: 6.3 h
inhibition in vivo at 3 mg/kg (Mus musculus [34]): 53%
Vd [35]: 3 L/kg

Compound: N[C@@H](CC(=O)N1CCn2c(nnc2C(F)(F)F)C1)Cc1cc(F)c(F)cc1F
Activity (Mus musculus [23]): Active

Compound: N[C@H]1C[C@@H](N2Cc3cn[nH]c3C2)CO[C@@H]1c1ccccc1Cl
IC50 (Dipeptidyl peptidase 8): > 100 µM
IC50 (Dipeptidyl peptidase 2): > 100 µM
IC50 (Prolyl endopeptidase FAP): > 100 µM

Compound: N[C@H]1C[C@@H](N2Cc3cn[nH]c3C2)CO[C@@H]1c1ccc(F)cc1F
IC50 (Dipeptidyl peptidase 8): > 100 µM
IC50 (Prolyl endopeptidase FAP): > 100 µM

Now from value to compound, other results behind:

IC50 (Dipeptidyl peptidase 8): > 100 µM
IC50 (Prolyl endopeptidase FAP): > 6.4 µM
Compound: N[C@H]1C[C@@H](N2Cc3cn[nH]c3C2)CO[C@@H]1c1cc(F)c(F)cc1F

IC50 (Dipeptidyl peptidase 8): > 100 µM
IC50 (Dipeptidyl peptidase 2): > 100 µM
IC50 (Prolyl endopeptidase FAP): > 100 µM
Compound: N[C@H]1C[C@@H](N2CCn3c(nnc3C(F)(F)F)C2)CO[C@@H]1c1cc(F)ccc1F

pKa [1]: 8.6
Compound: N[C@H]1C[C@@H](N2Cc3cnc(C(F)(F)F)nc3C2)CC[C@@H]1c1cc(F)c(F)cc1F
IC50 [2]: 4.8 µM
Activity (Canis familiaris [3]): > 5%

IC50 (Dipeptidyl peptidase 2): > 100 µM
IC50 (Prolyl endopeptidase FAP): > 100 µM
Compound: N[C@H]1C[C@@H](N2Cc3nc(C(F)(F)F)[nH]c3C2)CO[C@@H]1c1cc(F)ccc1F

pKa [1]: 7.3
Compound: N[C@H]1C[C@@H](N2Cc3cnc(C(F)(F)F)nc3C2)CO[C@@H]1c1cc(F)c(F)cc1F
Activity (Canis familiaris [4]): Non-toxic

IC50 (Dipeptidyl peptidase 8): > 100 µM
IC50 (Prolyl endopeptidase FAP): > 100 µM
Compound: N[C@H]1C[C@@H](N2Cc3cn[nH]c3C2)CO[C@@H]1c1cc(F)c(Cl)cc1F
